In ChEMBL document CHEMBL5579851, “Synthesis and antifungal evaluation of novel triazole derivatives bearing a pyrazole-methoxyl moiety” (Eur J Med Chem, 2024):
Values after ≈ are worked out from the molar mass of the structure shown. Active and inactive are the calls of the source. No cut-off for these calls is given here.

Tests used:
Candida albicans [1] = test: Antifungal activity against Candida albicans SC5314 assessed as inhibition of fungal growth incubated for 48 hrs by CLSI based broth microdilution assay; assay type: functional
Candida albicans [2] = test: Antifungal activity against Candida albicans 10231 assessed as inhibition of fungal growth incubated for 48 hrs by CLSI based broth microdilution assay; assay type: functional
Cryptococcus neoformans = test: Antifungal activity against Cryptococcus neoformans 32609 assessed as inhibition of fungal growth incubated for 72 hrs by CLSI based broth microdilution assay; assay type: functional
Nakaseomyces glabratus [3] = test: Antifungal activity against Candida glabrata 537 assessed as inhibition of fungal growth incubated for 48 hrs by CLSI based broth microdilution assay; assay type: functional
Candida parapsilosis [4] = test: Antifungal activity against Candida parapsilosis 22019 assessed as inhibition of fungal growth incubated for 48 hrs by CLSI based broth microdilution assay; assay type: functional; details: Lodderomyces parapsilosis
Pichia kudriavzevii = test: Antifungal activity against Candida krusei 4996 assessed as inhibition of fungal growth incubated for 48 hrs by CLSI based broth microdilution assay; assay type: functional
Candida tropicalis [5] = test: Antifungal activity against Candida tropicalis 8915 assessed as inhibition of fungal growth incubated for 48 hrs by CLSI based broth microdilution assay; assay type: functional
Candida albicans [6] = test: Antifungal activity against fluconazole-resistant Candida albicans 901 assessed as inhibition of fungal growth incubated for 48 hrs by CLSI based broth microdilution assay; assay type: functional
Candida albicans [7] = test: Antifungal activity against fluconazole-resistant Candida albicans 904 assessed as inhibition of fungal growth incubated for 48 hrs by CLSI based broth microdilution assay; assay type: functional
[Candida] auris [8] = Antifungal activity against fluconazole-resistant Candida auris 891 assessed as inhibition of fungal growth incubated for 48 hrs by CLSI based broth microdilution assay; assay type: functional; details: Candidozyma auris
[Candida] auris [9] = Antifungal activity against fluconazole-resistant Candida auris 918 assessed as inhibition of fungal growth incubated for 48 hrs by CLSI based broth microdilution assay; assay type: functional; details: Candidozyma auris
[Candida] auris [10] = Antifungal activity against fluconazole-resistant Candida auris 919 assessed as inhibition of fungal growth incubated for 48 hrs by CLSI based broth microdilution assay; assay type: functional; details: Candidozyma auris
Saccharomyces cerevisiae [11] = test: Antifungal activity against recombinant Saccharomyces cerevisiae Y525 overexpressing CaMdr1 assessed as inhibition of fungal growth incubated for 48 hrs by CLSI based broth microdilution assay; assay type: functional
Saccharomyces cerevisiae [12] = test: Antifungal activity against recombinant Saccharomyces cerevisiae Y570 overexpressing CaCdr1 assessed as inhibition of fungal growth incubated for 48 hrs by CLSI based broth microdilution assay; assay type: functional
Saccharomyces cerevisiae [13] = test: Antifungal activity against recombinant Saccharomyces cerevisiae Y2765 overexpressing CauMdr1 assessed as inhibition of fungal growth incubated for 48 hrs by CLSI based broth microdilution assay; assay type: functional
Saccharomyces cerevisiae [14] = test: Antifungal activity against recombinant Saccharomyces cerevisiae Y2766 overexpressing CauCdr1 assessed as inhibition of fungal growth incubated for 48 hrs by CLSI based broth microdilution assay; assay type: functional
Saccharomyces cerevisiae [15] = test: Antifungal activity against recombinant Saccharomyces cerevisiae Y2411 overexpressing ScErg11 assessed as inhibition of fungal growth incubated for 48 hrs by CLSI based broth microdilution assay; assay type: functional
Saccharomyces cerevisiae [16] = test: Antifungal activity against recombinant Saccharomyces cerevisiae Y2300 overexpressing ScErg11 assessed as inhibition of fungal growth incubated for 48 hrs by CLSI based broth microdilution assay; assay type: functional
Saccharomyces cerevisiae [17] = test: Antifungal activity against recombinant Saccharomyces cerevisiae Y2462 overexpressing ScErg11/ScNcp1 assessed as inhibition of fungal growth incubated for 48 hrs by CLSI based broth microdilution assay; assay type: functional
Saccharomyces cerevisiae [18] = test: Antifungal activity against recombinant Saccharomyces cerevisiae Y2459 overexpressing CaErg11/CaCpr assessed as inhibition of fungal growth incubated for 48 hrs by CLSI based broth microdilution assay; assay type: functional
Saccharomyces cerevisiae [19] = test: Antifungal activity against recombinant Saccharomyces cerevisiae Y2374 overexpressing CgErg11 assessed as inhibition of fungal growth incubated for 48 hrs by CLSI based broth microdilution assay; assay type: functional
Saccharomyces cerevisiae [20] = test: Antifungal activity against recombinant Saccharomyces cerevisiae Y2721 overexpressing CpErg11/CpCpr assessed as inhibition of fungal growth incubated for 48 hrs by CLSI based broth microdilution assay; assay type: functional
Saccharomyces cerevisiae [21] = test: Antifungal activity against recombinant Saccharomyces cerevisiae Y2767 overexpressing CauErg11 assessed as inhibition of fungal growth incubated for 48 hrs by CLSI based broth microdilution assay; assay type: functional
Saccharomyces cerevisiae [22] = test: Antifungal activity against recombinant Saccharomyces cerevisiae Y2711 overexpressing CnErg11 assessed as inhibition of fungal growth incubated for 48 hrs by CLSI based broth microdilution assay; assay type: functional
Saccharomyces cerevisiae [23] = test: Antifungal activity against recombinant Saccharomyces cerevisiae Y2301 overexpressing ScErg11 Y140F mutant assessed as inhibition of fungal growth incubated for 48 hrs by CLSI based broth microdilution assay; assay type: functional
Saccharomyces cerevisiae [24] = test: Antifungal activity against recombinant Saccharomyces cerevisiae Y2513 overexpressing ScErg11 Y140H mutant assessed as inhibition of fungal growth incubated for 48 hrs by CLSI based broth microdilution assay; assay type: functional
Saccharomyces cerevisiae [25] = test: Antifungal activity against recombinant Saccharomyces cerevisiae Y2716 overexpressing CpErg11 Y132F mutant/ CpCpr assessed as inhibition of fungal growth incubated for 48 hrs by CLSI based broth microdilution assay; assay type: functional
Saccharomyces cerevisiae [26] = test: Antifungal activity against recombinant Saccharomyces cerevisiae Y2768 overexpressing CauErg11 T132F mutant assessed as inhibition of fungal growth incubated for 48 hrs by CLSI based broth microdilution assay; assay type: functional
Saccharomyces cerevisiae [27] = test: Antifungal activity against recombinant Saccharomyces cerevisiae Y2769 overexpressing CauErg11 K143R mutant assessed as inhibition of fungal growth incubated for 48 hrs by CLSI based broth microdilution assay; assay type: functional
Candida tropicalis [28] = test: Potency index, ratio of ravuconazole MIC to test compound MIC for antifungal activity against Candida tropicalis 8915 assessed as inhibition of fungal growth incubated for 48 hrs by CLSI based broth microdilution assay; assay type: functional
Candida tropicalis [29] = test: Potency index, ratio of fluconazole MIC to test compound MIC for antifungal activity against Candida tropicalis 8915 assessed as inhibition of fungal growth incubated for 48 hrs by CLSI based broth microdilution assay; assay type: functional
Saccharomyces cerevisiae [30] = test: Selectivity index, ratio of MIC for antifungal activity against recombinant Saccharomyces cerevisiae Y525 overexpressing CaMdr1 to MIC for antifungal activity against recombinant Saccharomyces cerevisiae Y2411 overexpressing ScErg11; assay type: functional
Candida albicans [31] = test: Antifungal activity against Candida albicans SC5314 assessed as inhibition of fungal growth at 0.125 ug/ml after 48 hrs by TECAN plate reader analysis relative to control; assay type: functional
Candida parapsilosis [32] = test: Antifungal activity against Candida parapsilosis 22019 assessed as inhibition of fungal growth at 0.125 ug/ml measured up to 48 hrs by TECAN plate reader analysis; assay type: functional, organism-based; details: dose 0.125 µg/ml
Nakaseomyces glabratus [33] = test: Antifungal activity against Candida glabrata 537 assessed as inhibition of fungal growth at 2 ug/ml measured up to 48 hrs by TECAN plate reader analysis; assay type: functional, organism-based; details: dose 2.0 µg/ml
Candida albicans [34] = test: Antifungal activity against Candida albicans SC5314 assessed as inhibition of hyphae length after 3 hrs by inverted microscopic analysis; assay type: functional, organism-based; details: dose 0.0625-1 µg/ml
Candida albicans [35] = test: Antifungal activity against Candida albicans SC5314 assessed as inhibition of hyphae formation at 0.625 ug/ml after 3 hrs by inverted microscopic analysis relative to control; assay type: functional
Candida albicans [36] = test: Antibiofilm activity against Candida albicans SC5314 assessed as inhibition of biofilm formation at 64 ug/mL incubated for 24 hrs by XTT assay relative to control; assay type: functional
Candida albicans [37] = test: Antibiofilm activity against Candida albicans SC5314 assessed as increase in matured biofilm distruption incubated for 24 hrs by XTT assay; assay type: functional, organism-based; details: dose 0.25-64 µg/ml
Candida albicans [38] = test: Antibiofilm activity against Candida albicans SC5314 assessed as increase in matured biofilm distruption at 64 ug/ml incubated for 24 hrs by XTT assay relative to control; assay type: functional; details: dose 64 µg/ml
[39] = biological target: T1, Lanosterol 14-alpha demethylase (Candida albicans (strain SC5314 / ATCC MYA-2876) (Yeast), UniProt P10613); test: Inhibition of CYP51 in Candida albicans SC5314 assessed as ergosterol level at 0.0625 ug/ml after 8 hrs by GC-MS analysis (reference value: 86.2 %); set-up: scale not given: the % may be the effect or the level left; details: at 0.0625 µg/mL
[40] = biological target: T1, Lanosterol 14-alpha demethylase; test: Inhibition of CYP51 in Candida albicans SC5314 assessed as lanosterol level at 0.0625 ug/ml after 8 hrs by GC-MS analysis (reference value: 5.9 %); set-up: scale not given: the % may be the effect or the level left; details: at 0.0625 µg/mL
[41] = biological target: T1, Lanosterol 14-alpha demethylase; test: Inhibition of CYP51 in Candida albicans SC5314 assessed as 14alpha-methylfecosterol level at 0.0625 ug/ml after 8 hrs by GC-MS analysis relative to control; set-up: scale not given: the % may be the effect or the level left; details: at 0.0625 µg/mL
[42] = biological target: T1, Lanosterol 14-alpha demethylase; test: Inhibition of CYP51 in Candida albicans SC5314 assessed as eburicol level at 0.0625 ug/ml after 8 hrs by GC-MS analysis relative to control; set-up: scale not given: the % may be the effect or the level left; details: at 0.0625 µg/mL
[43] = biological target: T1, Lanosterol 14-alpha demethylase; test: Inhibition of CYP51 in Candida albicans SC5314 assessed as obtusifoliol level at 0.0625 ug/ml after 8 hrs by GC-MS analysis relative to control; set-up: scale not given: the % may be the effect or the level left; details: at 0.0625 µg/mL
[44] = Cytotoxicity against HUVEC cells assessed as cell viability at 128 ug/ml incubated for 24 hrs by CCK-8 assay relative to control; assay type: toxicity, cell-based; details: human, at 128 µg/mL, read-out: Activity

T1 sequence (P10613 whole entry): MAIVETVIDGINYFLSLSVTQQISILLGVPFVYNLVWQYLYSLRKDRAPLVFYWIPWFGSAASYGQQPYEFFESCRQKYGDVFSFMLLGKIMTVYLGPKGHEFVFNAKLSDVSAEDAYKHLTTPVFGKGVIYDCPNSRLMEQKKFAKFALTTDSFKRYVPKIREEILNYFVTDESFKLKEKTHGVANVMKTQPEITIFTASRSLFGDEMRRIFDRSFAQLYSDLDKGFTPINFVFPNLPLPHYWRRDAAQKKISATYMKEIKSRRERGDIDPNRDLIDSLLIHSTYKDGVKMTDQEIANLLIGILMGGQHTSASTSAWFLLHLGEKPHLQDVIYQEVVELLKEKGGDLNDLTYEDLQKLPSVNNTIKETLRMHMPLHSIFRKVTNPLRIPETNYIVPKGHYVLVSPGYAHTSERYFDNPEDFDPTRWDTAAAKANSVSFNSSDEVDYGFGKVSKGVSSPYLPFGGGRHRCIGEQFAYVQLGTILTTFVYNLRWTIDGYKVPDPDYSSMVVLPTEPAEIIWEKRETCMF

C[C@@H](OCc1ccn(Cc2ccc(F)cc2)n1)[C@](O)(Cn1cncn1)c1ccc(F)cc1F
MIC (Candida albicans [1]): ≤ 0.125 µg/mL | MIC (Candida albicans [2]): ≤ 0.125 µg/mL | MIC (Cryptococcus neoformans): 0.25 µg/mL (≈ 0.547 µM) | MIC (Nakaseomyces glabratus [3]): ≤ 0.125 µg/mL | MIC (Candida parapsilosis [4]): 0.25 µg/mL (≈ 0.547 µM) | MIC (Pichia kudriavzevii): 4 µg/mL (≈ 8.74 µM) | MIC (Candida tropicalis [5]): 0.25 µg/mL (≈ 0.547 µM) | MIC (Candida albicans [6]): 2 µg/mL (≈ 4.37 µM) | MIC (Candida albicans [7]): 8 µg/mL (≈ 17.5 µM) | MIC ([Candida] auris [8]): 16 µg/mL (≈ 35 µM) | MIC ([Candida] auris [9]): 16 µg/mL (≈ 35 µM) | MIC ([Candida] auris [10]): 16 µg/mL (≈ 35 µM) | MIC (Saccharomyces cerevisiae [11]): 0.25 µg/mL | MIC (Saccharomyces cerevisiae [12]): 32 µg/mL | MIC (Saccharomyces cerevisiae [13]): 0.25 µg/mL | MIC (Saccharomyces cerevisiae [14]): 4 µg/mL | MIC (Saccharomyces cerevisiae [15]): 0.016 µg/mL | MIC (Saccharomyces cerevisiae [16]): 0.063 µg/mL | MIC (Saccharomyces cerevisiae [17]): 0.125 µg/mL | MIC (Saccharomyces cerevisiae [18]): 0.0313 µg/mL | MIC (Saccharomyces cerevisiae [19]): 0.0313 µg/mL | MIC (Saccharomyces cerevisiae [20]): 0.0313 µg/mL | MIC (Saccharomyces cerevisiae [21]): 0.0313 µg/mL | MIC (Saccharomyces cerevisiae [22]): 0.008 µg/mL | MIC (Saccharomyces cerevisiae [23]): 0.0313 µg/mL | MIC (Saccharomyces cerevisiae [24]): 0.016 µg/mL | MIC (Saccharomyces cerevisiae [25]): 0.125 µg/mL | MIC (Saccharomyces cerevisiae [26]): 0.063 µg/mL | MIC (Saccharomyces cerevisiae [27]): 0.063 µg/mL | Ratio (Candida tropicalis [28]): 32 | Ratio (Candida tropicalis [29]): 256 | Ratio (Saccharomyces cerevisiae [30]): 16 | inhibition at 0.125 µg/mL (Candida albicans [31]): 100% | inhibition (Candida parapsilosis [32]): Active | inhibition (Nakaseomyces glabratus [33]): inactive | inhibition (Candida albicans [34]): Dose-Dependent Effect | inhibition at 0.625 µg/mL (Candida albicans [35]): 100% | inhibition at 64 µg/mL (Candida albicans [36]): > 55% | Activity (Candida albicans [37]): Dose-Dependent Effect | Activity (Candida albicans [38]): 49.2% | Activity [39]: 1.4% | Activity [40]: > 25% | Activity [41]: ~ 20% | Activity [42]: ~ 20% | Activity [43]: ~ 20% | viability at 24 h, 128 ug/ml [44]: 75.8%
